The source of these data is patent US11820782B2, “Salt forms of amino pyrazine purine based selective kinase inhibitor” (FTG BIO LLC, priority 2018, dated 2023).

Series [1] in a line: Equilibrium solubility in pH 6.8 0.01M phosphate buffer by HPLC. Particulars: pH6.8 0.01M potassium dihydrogen phosphate buffer. It is filed as physicochemical.
Series [2] is described as follows: 1 week stability of shortlisted salts at 40° C./75% RH, open. It is filed as physicochemical. The following applies: after 7 days at 40° C./75% RH, open.

As for Fumarate, the “Solubility in pH 6.8 buffer” value in series [1] was 2.62 mg/mL. Further, in series [2] (HPLC), the “% purity” value turned out to be 95.81%. Besides, the XRD result in series [2] (physical form vs initial) is “Same as initial form”.
